Assay results from patent US7125878B2, “Substituted pyrroline kinase inhibitors” (Janssen Pharmaceutica, priority 2002, dated 2006).
“And” between values parts separate entries of the source, which are not always exact repeats. Equal entries are not always repeated.

Molecular target: T1, recombinant rabbit GSK-3β protein (Oryctolagus cuniculus, UniProt G1T8E2)
T1 construct: purchased New England Biolabs
Experiment: Glycogen Synthase Kinase-3 Assay (33P phosphorylation of PPI-2)
Format: biochemical
Conditions: @100 nM
Description: Glycogen Synthase Kinase-3 Assay
Compounds were tested for the ability to inhibit recombinant rabbit GSK-3β protein using the following protocol. The test compound was added to a reaction mixture containing Protein Phosphatase Inhibitor-2 (PPI-2) (Calbiochem) (45 ng), rabbit GSK-3β protein (New England Biolabs) (0.75 units) and ^33P-ATP (1 μCi) in 50 mM Tris-HCl (pH 8.0), 10 mM MgCl2, 0.1% BSA, 1 mM DTT and 100 μM Sodium Vanadate. The mixture was reacted for 90 minutes at 30° C. to allow phosphorylation of the PPI-2 protein and then the protein in the reaction was precipitated using 10% TCA. The precipitated protein was collected on filter plates (MultiScreen-DV/Millipore), which were subsequently washed. Finally, the radioactivity was quantified using a TopCount Scintillation Counter (Packard). […] Staurosporine or Valproate, known inhibitors of GSK-3β, were used as a positive control for screening.

T1 sequence (G1T8E2 1-432): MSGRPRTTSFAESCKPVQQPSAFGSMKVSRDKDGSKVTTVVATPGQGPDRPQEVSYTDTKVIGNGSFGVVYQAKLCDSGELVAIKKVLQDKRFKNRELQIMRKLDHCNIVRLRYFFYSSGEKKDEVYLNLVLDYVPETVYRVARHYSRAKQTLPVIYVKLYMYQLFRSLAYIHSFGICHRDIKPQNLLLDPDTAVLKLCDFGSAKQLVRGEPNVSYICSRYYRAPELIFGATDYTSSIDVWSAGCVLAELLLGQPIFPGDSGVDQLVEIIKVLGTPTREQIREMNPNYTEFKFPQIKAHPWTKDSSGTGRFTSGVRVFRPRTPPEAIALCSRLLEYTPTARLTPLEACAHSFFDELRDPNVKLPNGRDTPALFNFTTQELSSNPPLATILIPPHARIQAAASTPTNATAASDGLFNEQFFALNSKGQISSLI

SMILES	inhibition at 0.1 µM
O=C1NC(=O)C(c2cn(CCCO)c3ncccc23)=C1c1n[nH]c2ccccc12 [Cpd 6, 3-[1-(3-hydroxypropyl)-1H-pyrrolo[2,3-b]pyridin-3-yl]-4-(1H-indazol-3-yl)-1H-pyrrole-2,5-dione]	56%
O=C1NC(=O)C(c2cn(CCCO)c3ncccc23)=C1c1ncc[nH]1 [Cpd 17, 3-[1-(3-hydroxypropyl)-1H-pyrrolo[2,3-b]pyridin-3-yl]-4-(1H-imidazol-2-yl)-1H-pyrrole-2,5-dione]	19%

Same assay, conditions: @200 nM

SMILES	inhibition at 0.2 µM
O=C1NC(=O)C(c2cn(CCCO)c3ncccc23)=C1c1cn(CCCO)cn1 [Cpd 18, 3-[1-(3-hydroxypropyl)-1H-imidazol-4-yl]-4-[1-(3-hydroxypropyl)-1H-pyrrolo[2,3-b]pyridin-3-yl]-1H-pyrrole-2,5-dione]	29%
O=C1NC(=O)C(c2cn(CCCO)c3ncccc23)=C1c1cn(CCO)cn1 [Cpd 19, 3-[1-(2-hydroxyethyl)-1H-imidazol-4-yl]-4-[1-(3-hydroxypropyl)-1H-pyrrolo[2,3-b]pyridin-3-yl]-1H-pyrrole-2,5-dione]	25%

Same assay, conditions: @1 μM; two numbers = different days

SMILES	inhibition at 1 µM
Cc1noc(C)c1C1=C(c2cn(CCCO)c3ncccc23)C(=O)NC1=O [Cpd 44, 3-(3,5-Dimethyl-isoxazol-4-yl)-4-[1-(3-hydroxy-propyl)-1H-pyrrolo[2,3-b]pyridin-3-yl]-pyrrole-2,5-dione]	32%
O=C1NC(=O)C(c2cn(CCCO)c3ncccc23)=C1c1ncccn1 [Cpd 56, 3-[1-(3-Hydroxy-propyl)-1H-pyrrolo[2,3-b]pyridin-3-yl]-4-pyrimidin-2-yl-pyrrole-2,5-dione]	23%

Same assay, conditions: two numbers = data obtained on different days

SMILES	IC50
CCn1cc(C2=C(c3cn(CCCO)c4ncccc34)C(=O)NC2=O)c2cccnc21 [Cpd 7, 3-(1-ethyl-1H-pyrrolo[2,3-b]pyridin-3-yl)-4-[1-(3-hydroxypropyl)-1H-pyrrolo[2,3-b]pyridin-3-yl]-1H-pyrrole-2,5-dione]	51 nM
COc1cccc(C2=C(c3cn(CCCO)c4ncccc34)C(=O)NC2=O)c1 [Cpd 9, 3-[1-(3-hydroxypropyl)-1H-pyrrolo[2,3-b]pyridin-3-yl]-4-(3-methoxyphenyl)-1H-pyrrole-2,5-dione]	11 nM
O=C1NC(=O)C(c2cn(CCCO)c3ncccc23)=C1c1ccccc1C(F)(F)F [Cpd 11, 3-[1-(3-hydroxypropyl)-1H-pyrrolo[2,3-b]pyridin-3-yl]-4-[2-(trifluoromethyl)phenyl]-1H-pyrrole-2,5-dione]	4 nM
O=C1NC(=O)C(c2cn(CCCO)c3ncccc23)=C1c1ccn(CCCO)n1 [Cpd 16, 3-[1-(3-hydroxypropyl)-1H-pyrazol-3-yl]-4-[1-(3-hydroxypropyl)-1H-pyrrolo[2,3-b]pyridin-3-yl]-1H-pyrrole-2,5-dione]	100 nM
O=C1NC(=O)C(c2cn(CCCO)c3ncccc23)=C1/C=C/c1ccc(F)cc1 [Cpd 22, 3-[(E)-2-(4-fluorophenyl)ethenyl]-4-[1-(3-hydroxypropyl)-1H-pyrrolo[2,3-b]pyridin-3-yl]-1H-pyrrole-2,5-dione]	330 nM
O=C1NC(=O)C(c2cn(CCCO)c3ncccc23)=C1C1=CCCCO1 [Cpd 23, 3-(3,4-dihydro-2H-pyran-6-yl)-4-[1-(3-hydroxypropyl)-1H-pyrrolo[2,3-b]pyridin-3-yl]-1H-pyrrole-2,5-dione]	158 nM and 51 nM
O=C1NC(=O)C(c2cn(CCCO)c3ncccc23)=C1c1cc2ccccc2o1 [Cpd 25, 3-(2-benzofuranyl)-4-[1-(3-hydroxypropyl)-1H-pyrrolo[2,3-b]pyridin-3-yl]-1H-pyrrole-2,5-dione]	71 nM and 44 nM
O=C1NC(=O)C(c2cn(CCCO)c3ncccc23)=C1c1cncnc1 [Cpd 41, 3-[1-(3-Hydroxy-propyl)-1H-pyrrolo[2,3-b]pyridin-3-yl]-4-pyrimidin-5-yl-pyrrole-2,5-dione]	37 nM and 42 nM
O=C1NC(=O)C(c2cccc3cccnc23)=C1c1cn(CCCO)c2ncccc12 [Cpd 42, 3-[1-(3-Hydroxy-propyl)-1H-pyrrolo[2,3-b]pyridin-3-yl]-4-quinolin-8-yl-pyrrole-2,5-dione]	123 nM and 106 nM
Cn1ccc(C2=C(c3cn(CCCO)c4ncccc34)C(=O)NC2=O)c1 [Cpd 46, 4-[1-(3-Hydroxy-propyl)-1H-pyrrolo[2,3-b]pyridin-3-yl]-1′-methyl-1′H-[3,3′]bipyrrolyl-2,5-dione]	38 nM and 37 nM
O=C1NC(=O)C(c2cn(CCCO)c3ncccc23)=C1c1ccn(Cc2ccccc2)c1 [Cpd 48, 1′-Benzyl-4-[1-(3-hydroxy-propyl)-1H-pyrrolo[2,3-b]pyridin-3-yl]-1′H-[3,3′]bipyrrolyl-2,5-dione]	47 nM and 38 nM
O=C1NC(=O)C(c2cn(CCCO)c3ncccc23)=C1c1cnc(-c2ccccc2)o1 [Cpd 49, 3-[1-(3-Hydroxy-propyl)-1H-pyrrolo[2,3-b]pyridin-3-yl]-4-(2-phenyl-oxazol-5-yl)-pyrrole-2,5-dione]	56 nM and 58 nM
O=C1NC(=O)C(c2cn(CCCO)c3ncccc23)=C1c1cc2n(n1)CCC2 [Cpd 50, 3-(5,6-Dihydro-4H-pyrrolo[1,2-b]pyrazol-2-yl)-4-[1-(3-hydroxy-propyl)-1H-pyrrolo[2,3-b]pyridin-3-yl]-pyrrole-2,5-dione]	88 nM and 107 nM
O=C1NC(=O)C(c2cn(CCCO)c3ncccc23)=C1C1=COCCO1 [Cpd 51, 3-(5,6-Dihydro-[1,4]dioxin-2-yl)-4-[1-(3-hydroxy-propyl)-1H-pyrrolo[2,3-b]pyridin-3-yl]-pyrrole-2,5-dione]	150 nM and 187 nM
O=C1NC(=O)C(c2cn(CCCO)c3ncccc23)=C1c1cc2n(n1)CCCC2 [Cpd 54, 3-[1-(3-Hydroxy-propyl)-1H-pyrrolo[2,3-b]pyridin-3-yl]-4-(4,5,6,7-tetrahydro-pyrazolo[1,5-a]pyridin-2-yl)-pyrrole-2,5-dione]	232 nM and 161 nM
COc1ncc(C2=C(c3cn(CCCc4ccccc4)c4ncccc34)C(=O)NC2=O)c(OC)n1 [Cpd 57, 3-(2,4-Dimethoxy-pyrimidin-5-yl)-4-[1-(3-phenyl-propyl)-1H-pyrrolo[2,3-b]pyridin-3-yl]-pyrrole-2,5-dione]	15 nM and 10 nM
O=C1NC(=O)C(c2cn(CCCc3ccccc3)c3ncccc23)=C1c1cncnc1 [Cpd 58, 3-[1-(3-Phenyl-propyl)-1H-pyrrolo[2,3-b]pyridin-3-yl]-4-pyrimidin-5-yl-pyrrole-2,5-dione]	366 nM and 344 nM
O=C1NC(=O)C(c2cn(CCCc3ccccc3)c3ncccc23)=C1c1cc2n(n1)CCC2 [Cpd 59, 3-(5,6-Dihydro-4H-pyrrolo[1,2-b]pyrazol-2-yl)-4-[1-(3-phenyl-propyl)-1H-pyrrolo[2,3-b]pyridin-3-yl]-pyrrole-2,5-dione]	519 nM and 424 nM
O=C1NC(=O)C(c2cn(CCCc3ccccc3)c3ncccc23)=C1c1cnccn1 [Cpd 60, 3-[1-(3-Phenyl-propyl)-1H-pyrrolo[2,3-b]pyridin-3-yl]-4-pyrazin-2-yl-pyrrole-2,5-dione]	625 nM

The remaining lines, values ahead:

IC50	SMILES
3 nM	COc1ccccc1C1=C(c2cn(CCCO)c3ncccc23)C(=O)NC1=O [Cpd 8, 3-[1-(3-hydroxypropyl)-1H-pyrrolo[2,3-b]pyridin-3-yl]-4-(2-methoxyphenyl)-1H-pyrrole-2,5-dione]
10 nM	O=C1NC(=O)C(c2cn(CCCO)c3ncccc23)=C1c1ccc(F)cc1Cl [Cpd 10, 3-(2-chloro-4-fluorophenyl)-4-[1-(3-hydroxypropyl)-1H-pyrrolo[2,3-b]pyridin-3-yl]-1H-pyrrole-2,5-dione]
36 nM	O=C1NC(=O)C(c2cn(CCCO)c3ncccc23)=C1c1ncc(C(F)(F)F)cc1Cl [Cpd 13, 3-[3-chloro-5-(trifluoromethyl)-2-pyridinyl]-4-[1-(3-hydroxypropyl)-1H-pyrrolo[2,3-b]pyridin-3-yl]-1H-pyrrole-2,5-dione]
6 nM	O=C1NC(=O)C(c2cn(CCCO)c3ncccc23)=C1c1cccs1 [Cpd 14, 3-[1-(3-hydroxypropyl)-1H-pyrrolo[2,3-b]pyridin-3-yl]-4-(2-thienyl)-1H-pyrrole-2,5-dione]
6 nM	O=C1NC(=O)C(c2cn(CCCO)c3ncccc23)=C1c1cc(Cl)sc1Cl [Cpd 15, 3-(2,5-dichloro-3-thienyl)-4-[1-(3-hydroxypropyl)-1H-pyrrolo[2,3-b]pyridin-3-yl]-1H-pyrrole-2,5-dione]
15 nM and 8 nM	O=C1NC(=O)C(c2cn(CCCO)c3ncccc23)=C1c1cc[nH]c1 [Cpd 24, 4-[1-(3-hydroxypropyl)-1H-pyrrolo[2,3-b]pyridin-3-yl]-[3,3′-bi-1H-pyrrole]-2,5-dione]
70 nM and 120 nM	Cn1ccc(C2=C(c3cn(CCCO)c4ncccc34)C(=O)NC2=O)n1 [Cpd 26, 3-[1-(3-hydroxypropyl)-1H-pyrrolo[2,3-b]pyridin-3-yl]-4-(1-methyl-1H-pyrazol-3-yl)-1H-pyrrole-2,5-dione]
67 nM and 95 nM	O=C1NC(=O)C(c2cn(CCCO)c3ncccc23)=C1c1ccc(O)c(O)c1 [Cpd 32, 3-(3,4-dihydroxyphenyl)-4-[1-(3-hydroxypropyl)-1H-pyrrolo[2,3-b]pyridin-3-yl]-1H-pyrrole-2,5-dione]
198 nM and 126 nM	O=C1NC(=O)C(c2cn(CCCO)c3ncccc23)=C1c1cc2ccccc2s1 [Cpd 43, 3-Benzo[b]thiophen-2-yl-4-[1-(3-hydroxy-propyl)-1H-pyrrolo[2,3-b]pyridin-3-yl]-pyrrole-2,5-dione]
28 nM and 18 nM	O=C1NC(=O)C(c2cn(CCCO)c3ncccc23)=C1c1cccoc1=O [Cpd 45, 3-[1-(3-Hydroxy-propyl)-1H-pyrrolo[2,3-b]pyridin-3-yl]-4-(2-oxo-2H-pyran-3-yl)-pyrrole-2,5-dione]
211 nM and 143 nM	O=C1NC(=O)C(c2cn(CCCO)c3ncccc23)=C1c1ccco1 [Cpd 53, 3-Furan-2-yl-4-[1-(3-hydroxy-propyl)-1H-pyrrolo[2,3-b]pyridin-3-yl]-pyrrole-2,5-dione]
